Key:
[1] = system: human colorectal cancer cells HCT116; assay: Xenograft tumor model HCT116; format: in vivo, female athymic nude mice; details: oral
Protocol: (§1) The purpose of this assay is to measure reduction in tumor volume in response to test compound administration. Expand human colorectal cancer cells HCT116 (ATCC, #CCL-247) or human non-small cell lung cancer cells NCI-H358 (ATCC, # CRL-5807) in culture, harvest and inject 5×10e^6 cells in 200 μL of 1:1 HBSS+matrigel solution subcutaneously on to the rear right flank of female athymic nude mice (22-25 gm, Harlan Laboratories). Expand human pancreatic cancer cells SW1990 (ATCC, # CRL-2172) in culture, harvest and inject 2×10e^6 cells in 200 μL of 1:1 HBSS+matrigel solution subcutaneously on to the rear right flank of female athymic nude mice (22-25 gm, Harlan Laboratories). Expand human pancreatic cancer cells MIA PACA-2 (ATCC, # CRL-1420) or human non-small cell lung cancer cells A549 (ATCC, # CCl-185) in culture, harvest and inject 5×10e^6 cells in 200 μL of 1:1 HBSS+matrigel solution subcutaneously on to the rear right flank of female CB-17 SCID mice (22-25 gm, Charles River Laboratories International Inc.). Expand human melanoma cells A-375 (ATCC, # CRL-1619) in culture, harvest and inject 5×10e^6 cells in 200 μL of 1:1 HBSS+matrigel solution subcutaneously on to the rear right flank of female NIH nude rats (140-160 gm, Taconic Farms). Measure tumor growth and body weight twice per week beginning the seventh day after the implantation. When tumor sizes reach 200-400 mm^3, randomize animals and group into groups of eight to ten animals. Prepare test compound in an appropriate vehicle (vehicle: 1% HEC/0.25% Tween 80/0.05% Antifoam) and administer by oral gavage for 14 to 28 days. Tumor response is determined by tumor volume measurement performed twice a week during the course of treatment.

[2] = system: human pancreatic cancer cells MIA PACA-2; assay: Xenograft tumor model MIA PACA-2; format: in vivo, female CB-17 SCID mice; details: oral, p <0.001
Protocol: as §1

CALU-6 = assay: Xenograft tumor model CALU-6; format: in vivo; details: oral
[3] = system: RSK1 phosphorylation in HCT116 tumor xenograft; assay: In vivo target inhibition (IVTI) assay (pRSK1 ELISA), HCT116 xenograft; design: species or system female athymic nude mice; details: oral
Protocol: The purpose of this assay is to measure the ability of a test compound to inhibit ERK1/2 substrate phosphorylation in an animal model. Implant female athymic nude mice (22-25 g) from Harlan Laboratories with 5×10e^6 HCT116 colorectal cancer cells (ATCC, # CCL-247) subcutaneously in the right flank region in 200 μL of 1:1 Hank's Balanced Salt Solution (HBSS)+Matrigel solution. Measure tumor growth and body weight twice per week beginning the seventh day after the implantation. When tumor sizes reach 300-500 mm^3, randomize animals and group into groups of five animals. […]
Pulverize tumors in liquid nitrogen and lyse in 1× lysis buffer (MSD, #R60TX-3) containing 1× halt protease & phosphatase inhibitor cocktail (Thermo Scientific, #0861281), 1 mM phenylmethanesulfonyl fluoride (PMSF) (Sigma, #93482-50ML-F) and 1 μM sodium metavanadate (Sigma, #590088) using Matrix D beads (MP Biomedical, #6913-500) in a FastPrep-24™ Cell Disrupter machine (MP Biomedical) in a cold room (4° C.). […] Cool plate to room temperature and measure the absorbance at or near 562 nm on a plate reader (Envision plate reader from Perkin Elmer). Subtract the average 562 nm absorbance measurement of the blank standard replicates from the 562 nm measurements of all other individual standard and unknown (cell or tumor lysate) sample replicates. […]

[4] = system: human non-small cell lung cancer cells A549; assay: Xenograft tumor model A549; format: in vivo, female CB-17 SCID mice; details: oral
Protocol: as §1, with “Measure tumor growth and body weight twice per week beginning the seventh day after the implantation. When tumor sizes reach 200-400 mm^3, randomize animals and group into groups of eight to ten animals. Prepare test compound in an appropriate vehicle (vehicle: 1% HEC/0.25% Tween 80/0.05% Antifoam) and administer by oral gavage for 14 to 28 days.” left out

COCCN1C(=O)c2cc(-c3ccnc(Nc4ccnn4C)c3)sc2C1(C)C [Example 1, 5-(2-Methoxyethyl)-6,6-dimethyl-2-{2-[(1-methyl-1H-pyrazol-5-yl)amino]pyridin-4-yl}-5,6-dihydro-4H-thieno[2,3-c]pyrrol-4-one]
Delta T/C (%) ([1]; HCT116, 10 mg/kg BID, p 0.023): 55% | Delta T/C (%) ([1]; HCT116, 25 mg/kg BID, p <0.001): 89% | Regression (%) ([1]; HCT116, 50 mg/kg BID, p <0.001): −31% | Delta T/C (%) ([1]; HCT116, 50 mg/kg QD, p <0.001): 83% | Delta T/C (%) ([1]; HCT116, 75 mg/kg QD, p <0.001): 98% | Delta T/C (%) ([2]; MIA PACA-2, 10 mg/kg BID): 76% | Regression (%) ([2]; MIA PACA-2, 25 mg/kg BID): −15% | Delta T/C (%) ([2]; MIA PACA-2, 25 mg/kg QD): 74% | Regression (%) ([2]; MIA PACA-2, 50 mg/kg BID): −72% | Delta T/C (%) ([2]; MIA PACA-2, 50 mg/kg QD): 97% | Regression (%) ([2]; MIA PACA-2, 75 mg/kg QD): −39% | Delta T/C (%) (CALU-6; CALU-6, 10 mg/kg BID, p 0.013): 44% | Regression (%) (CALU-6; CALU-6, 25 mg/kg BID, p <0.001): −10% | Delta T/C (%) (CALU-6; CALU-6, 25 mg/kg QD, p 0.010): 46% | Regression (%) (CALU-6; CALU-6, 50 mg/kg BID, p <0.001): −75% | Delta T/C (%) (CALU-6; CALU-6, 50 mg/kg QD, p <0.001): 92% | Regression (%) (CALU-6; CALU-6, 75 mg/kg QD, p <0.001): −38% | TED50 (pRSK1 inhibition in tumor) [3]: 12 mg/kg | Delta T/C (%) ([4]; A549, 10 mg/kg BID, p 0.471): 13% | Delta T/C (%) ([4]; A549, 30 mg/kg BID, p <0.001): 66%

Reference: patent publication US9879029B2, “ERK inhibitors” (Eli Lilly and Company, priority 2014, dated 2018)
